Measurements from PubChem BioAssay (NCI).
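The compound was tested at five concentrations on cells cultured in 96-well plates, with a 48-hour exposure period. TGI denotes the concentration required for complete inhibition of growth.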

Experiments:
Assay in all cases: inhibition of tumour cell growth, NCI panel, 48 h
SF-539 CNS = tested on: SF-539 CNS
HL-60(TB) leukemia = tested on: HL-60(TB) leukemia
SK-MEL-28 melanoma = tested on: SK-MEL-28 melanoma
MDA-N = tested on: MDA-N
PC-3 prostate = tested on: PC-3 prostate
NCI-H23 lung = tested on: NCI-H23 lung
HCT-15 colon = tested on: HCT-15 colon
OVCAR-5 ovarian = tested on: OVCAR-5 ovarian
RXF 393 renal = tested on: RXF 393 renal
786-0 renal = tested on: 786-0 renal
UO-31 renal = tested on: UO-31 renal

SMILES | TGI (SF-539 CNS) | TGI (HL-60(TB) leukemia) | TGI (SK-MEL-28 melanoma) | TGI (MDA-N) | TGI (PC-3 prostate) | TGI (NCI-H23 lung) | TGI (HCT-15 colon) | TGI (OVCAR-5 ovarian) | TGI (RXF 393 renal) | TGI (786-0 renal) | TGI (UO-31 renal)
Fc1nc(Sc2ncnc3nc[nH]c23)nc(-c2c3ccccc3c3sc4ccccc4n23)n1 | > 100 µM | > 100 µM | > 100 µM | > 100 µM | > 100 µM | > 100 µM | > 100 µM | > 100 µM | > 100 µM | > 100 µM | > 100 µM
O=C(Nc1nnc(-c2ccccc2)o1)C(SC(=S)N1CCCC1)c1ccccc1 (centres undefined) | 91.8 µM | 48.1 µM | > 100 µM | > 100 µM | > 100 µM | 79.7 µM | > 100 µM | > 100 µM | > 100 µM | > 100 µM | 57.8 µM
COc1ccc(Nc2nc(N)c(C(=O)c3ccco3)s2)cc1 | 63.2 µM | 17.7 µM | > 100 µM | > 100 µM | > 100 µM | > 100 µM | > 100 µM | > 100 µM | > 77.6 µM | > 80.1 µM | > 70.2 µM
Cc1cc(C)n(C(C)(C(=O)Cc2ccccc2)n2nc(C)cc2C)n1 | > 100 µM | > 100 µM | > 100 µM | > 100 µM | > 100 µM | > 100 µM | > 100 µM | > 100 µM | > 100 µM | > 100 µM | > 100 µM
COc1cc2c(cc1OC)C(C1CC1)ON(C)CC2 (centres undefined) | > 100 µM | > 100 µM | > 100 µM | > 100 µM | > 100 µM | > 100 µM | > 100 µM | > 100 µM | > 100 µM | > 100 µM | > 100 µM
Clc1ccc(-c2nn3c(COc4ccc(OCc5nnc6sc(-c7ccc(Cl)cc7)nn56)c(Cl)c4)nnc3s2)cc1 | > 100 µM | 36 µM | > 100 µM | 67.2 µM | > 100 µM | 62.3 µM | > 100 µM | 71.7 µM | 44.1 µM | 26.6 µM | 42.1 µM
CCOC(=O)C(NC(=O)c1ccccc1)(Nc1ccc(S(=O)(=O)Nc2cc(C)on2)cc1)C(F)(F)F (centres undefined) | > 100 µM | > 100 µM | > 100 µM | > 100 µM | > 100 µM | > 10 µM | > 100 µM | > 100 µM | > 100 µM | > 100 µM | > 100 µM
CCCCCCCC(=O)OC[n+]1cccc(-c2c(COC(=O)NC(C)C)c(COC(=O)NC(C)C)c3n2CCC3)c1 | > 89.5 µM | > 82.1 µM | > 100 µM | > 100 µM | > 100 µM | > 100 µM | > 100 µM | > 100 µM | 97.2 µM | > 100 µM | > 100 µM
CCOC1OC(C)(C=C(C#N)C#N)CCC1C (centres undefined) | 56.6 µM | 80.4 µM | > 100 µM | > 100 µM | > 100 µM | > 100 µM | > 71.2 µM | > 100 µM | > 91.7 µM | > 89.2 µM | 97.7 µM
